{"source": "patent US11352400B2", "about": "“PI3K gamma inhibitor peptide for treatment of respiratory system diseases” (Kither Biotech S.r.I., priority 2014, dated 2022)", "key": {"[1]": {"test_system": "ovalbumin (OVA)-induced asthma mice", "assay": "Airway hyperresponsiveness (tidal volume) in ovalbumin-induced asthma model", "type": "in vivo, BALB/C mice", "settings": "OVA-sensitized mice; 150 μg intra-tracheal, 30 minutes before methacholine; vs PBS or P1", "experimental": "Ovalbumin (100 μg) (OVA, Sigma-Aldrich, St. Louis, Mo.), complexed with aluminum potassium sulfate (1 mg, alum) was administered intraperitoneally (i.p.) on days 1 and 14, and intra-nasally (i.n.) (50 μg OVA in 50 μl PBS) on days 14, 25, 26, and 27. Control mice received i.p. injections of alum and i.n. injections of PBS only. Airway hyperreactivity induced by inhaled methacholine was measured at 24 hours after the final dose of OVA (Day 28).\nMethod 2: Mice sensitized to ovalbumin were treated, by intra-tracheal instillation, with 70 μL of phosphate-buffered saline solution (PBS) containing vehicle or 150 μg of the Trojan peptide derived from PI3Kγ or equimolar amounts of P1 control peptide. Airway hyperresponsiveness was assessed at 30 minutes after the treatment according to a previously published protocol (6). […] The airway opening pressure (Pao), proximal to the endotracheal tube, and the pressure inside the chamber were measured with pressure transducers (Special Instruments, Digima Clic; Nordlingen, Germany). Gas flow was measured with a pneumotachograph (Special Instruments, Digima Clic; Nordlingen, Germany). Tidal volume was calculated as the integral of the flow signal. Variables of mechanical ventilation were recorded using the ICU-Lab software (KleisTEK Advanced Electronic Systems, Bari, Italy). […]"}, "CFTR": {"test_system": "CFTR", "assay": "cAMP-mediated (PKA) phosphorylation of CFTR in NuLi-1 cells", "type": "cell-based, human", "settings": "30 minutes", "experimental": "(§1) Human airway epithelial cell lines expressing a wild-type CFTR (NuLi-1) or with the ΔF508 mutation (CuFi-1) were purchased from ATCC (NuLi-1 product code: ATCC® CRL-4011™; CuFi-1 product code: ATCC® CRL-4013™). Cells were cultured in Dulbecco's Modified Eagle Medium (DMEM, Gibco, Carlsbad, Calif.) supplemented with 10% fetal bovine serum (FBS), 30 μg/mL of penicillin, 100 μg/mL of streptomycin and 300 μg/mL hygromycin B (Gibco, Carlsbad, Calif.).\nFor immunoprecipitation assays, protein extracts were pre-incubated with 30 μL of a 1:1 mixture of protein A or G and sepharose (Amersham Biosciences, Buckinghamshire, UK) and subsequently incubated with 20 μL of a 1:1 mixture of protein A or G and sepharose and […] of primary antibody for each mg of protein, for 2 hours at 4° C. Immune complexes were washed extensively with lysis buffer and used for Western blotting or subjected to measurements of phosphodiesterase activity.\nThe antibody that recognizes substrates phosphorylated by PKA (P-PKA substrate) was purchased from Cell Signaling Technology (Danvers, Mass., USA; product code: #9621) and the antibody against CFTR clone M3A7 from Millipore (Billerica, Mass., USA; product code: 05-583)."}, "ΔF508-CFTR": {"test_system": "ΔF508-CFTR", "assay": "Chloride currents in Ussing chamber, CuFi-1 cells", "type": "cell-based, human", "settings": "CuFi-1 cells corrected with VX-809 (20 μM, 24 hours); peptide 10 μM in the presence of VX-770 10 μM", "experimental": "as §1\nTo measure chloride currents in normal and ΔF508 primary human bronchial epithelial cells, cells were cultured on 1.12 cm^2 Snapwell inserts. Filters were mounted in Ussing chambers, and a chloride gradient was applied by incubating the cells in a basolateral high-chloride buffer containing (in mmol/L): 140 NaCl, 5 KCl, 0.36 K2HPO4, 0.44 KH2PO4, 1.3 CaCl2, 0.5 MgCl2, 4.2 NaHCO3, 10 HEPES, and 10 glucose, at pH 7.4 and an apical low-chloride buffer containing (in mmol/L): 133.3 Na-gluconate, 5 K-gluconate, 2.5 NaCl, 0.36 K2HPO4, 0.44 KH2PO4, 5.7 CaCl2, 0.5 MgCl2, 4.2 NaHCO3, 10 HEPES, and 10 mannitol, at pH 7.4. Buffers were aerated with a mixture of 95% O2 and 5% CO2 and the temperature was maintained at 37° C. during the experiment. […] After a stabilization period of 30 minutes, drugs were added at specific times, while the current was continuously recorded."}}, "data": [{"sequence": "RQIKIWFQNRRMKWKKGKATHRSPGQIHLVQRHPPSEESQAF (fusion peptide comprising SEQ ID No.1 and SEQ ID No.3) [Trojan peptide derived from PI3Kγ]", "values": [{"measurement": "reduction of the tidal volume induced by methacholine", "setting": "[1]", "value": "significantly attenuated"}, {"measurement": "CFTR phosphorylation (cAMP-mediated)", "setting": "CFTR; 25 μM, vs vehicle or P1", "value": "significantly higher"}, {"measurement": "cAMP-dependent CFTR phosphorylation induced by a PDE4 inhibitor", "setting": "CFTR; peptide 25 μM together with Rolipram 10 μM", "value": "further enhanced"}, {"measurement": "increase of the CFTR currents over basal activity", "setting": "ΔF508-CFTR", "value": "about 5 fold"}]}]}
